Here are results for 4 compounds from US20260167622A1, “PAN-KRAS DEGRADING AGENT, AND PREPARATION METHOD THEREFOR AND USE THEREOF” (LEADINGTAC PHARMACEUTICAL (SHAOXING) CO., LTD., priority 2022, published 2026).

Structures are written as SMILES.

Holding throughout (assay type): cell-based
The test system of assay [1] is KRAS G12V mutant human lung squamous carcinoma cell SW900. Description: 3D cell proliferation inhibition assay, SW900. The conditions noted are these: SW900, 168 h, 3D culture, 7 days, CTG.
The subject of assay [2] is KRAS G12V mutant human colorectal cancer cell SW620. In words: 3D cell proliferation inhibition assay, SW620. The note with it: SW-620, 168 h, 3D culture, 7 days, CTG. An outline of the steps:
(§1)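 Seven-day 3D growth at 37 °C in low-adsorption wells, 5×10^2 cells/well except MKN1 (1×10^3), final compound range 10000–0.026 nM in 0.2% DMSO. CTG luminescence read-out; percent inhibition set against DMSO and medium-only wells, IC50 by curve fitting.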

The subject of assay [3] is KRAS G12D mutant human metastatic pancreatic cancer cell AsPc-1. In words: 3D cell proliferation inhibition assay, AsPc-1. The note with it: ASPC1, 168 h, 3D culture, 7 days, CTG. Summed up: as §1
Assay [4] concerns KRAS G13D mutant human colorectal cancer epithelial cell DLD-1. Description: 3D cell proliferation inhibition assay, DLD-1. The conditions noted are these: DLD-1, 168 h, 3D culture, 7 days, CTG. An outline of the steps: as §1
For assay [5], the system named is KRAS G12D mutant human gastric cancer cell AGS. Description: 3D cell proliferation inhibition assay, AGS. The note with it: 168 h, 3D culture, 7 days, CTG. Summed up: as §1
The target of assay [6] is T1, KRAS G12V protein in SW900 cells (Homo sapiens, UniProt P01116, G12V).
T1 construct: endogenous in cells; host or cells: SW900
T1 sequence (P01116 1-188 isoform P01116-2 G12V): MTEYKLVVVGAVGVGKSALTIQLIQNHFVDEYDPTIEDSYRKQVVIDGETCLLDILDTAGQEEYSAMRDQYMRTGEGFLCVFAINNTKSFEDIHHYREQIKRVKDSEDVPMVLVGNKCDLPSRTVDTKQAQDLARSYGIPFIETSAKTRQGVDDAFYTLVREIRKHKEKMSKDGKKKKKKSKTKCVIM
In words: KRAS degradation assay (Western Blot) in SW900 cells. The note with it: 24 h. Summed up: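 DC50 and Dmax were fitted from KRAS band intensity, corrected to β-actin and expressed against untreated control, after Western blotting of 5 μg lysate protein. Cells were exposed for 24 h at 37 °C to 0.03-3000 nM compound (final) with 0.25% DMSO.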

For assay [7], the system named is KRAS G12C mutant human non-small cell lung cancer cell NCI-H358. In words: 3D cell proliferation inhibition assay, NCI-H358. The conditions noted are these: NCI-H358, 168 h, 3D culture, 7 days, CTG. Summed up:
as §1

Assay [8] concerns KRAS G12D mutant human lung cancer cell A427. Description: 3D cell proliferation inhibition assay, A427. The note with it: A-427, 168 h, 3D culture, 7 days, CTG. An excerpt:
Test Example 6: 3D Cell Proliferation Inhibition Assay
The inhibitory effects of the compounds on 3D cell proliferation were investigated on KRAS G12C mutant human non-small cell lung cancer cell NCI-H358, KRAS G12D mutant human lung cancer cell A427, KRAS G12D mutant human gastric cancer cell AGS, KRAS G12D mutant human metastatic pancreatic cancer cell AsPc-1, KRAS G12V mutant human lung squamous carcinoma cell SW900, KRAS G12V mutant human colorectal cancer cell SW620, KRAS G13D mutant human colorectal cancer epithelial cell DLD-1, and KRAS WT human gastric cancer cell MKN1. The specific procedures were as follows:
10 μL of each compound solution diluted in a gradient was added to corresponding wells of a 96-well low-adsorption microplate (PerkinElmer), so that the final concentrations of the test compounds in the reaction system were in a range of 10000-0.026 nM. The final concentration of DMSO was 0.2%. Then 90 µL of cells were correspondingly seeded into each well to achieve a cell density of 5×10^2 cells/well (the cell density of SW900 was 5×10^3 cells/well, and the cell density of MKN1 was 1×10^3 cells/well). In addition to test wells for the test compounds, both a DMSO control well and a medium control well were set, with the DMSO control well containing DMSO and cells and the medium well containing only a medium. After the sample loading, the 96-well low-adsorption microplate was incubated in an incubator at 37° C. with […] for 7 days. After 7 days, the microplate was taken out, and 100 μL of CTG reagent (Promega) was added to each well. The plate was incubated at room temperature for 60 m and read on a microplate reader EnVision by the chemiluminescence program. The inhibition rates of the compounds at each concentration were calculated using the formula for the percentage inhibition of cell proliferation: inhibition rate 00=(mean value of DMSO control group−single concentration reading value of compound)/(mean value of DMSO control group−mean value of medium control group)×100. Then non-linear curve fillings for logarithmic concentration-inhibition rate were performed by GraphPad Prism 8, and the IC50 values of the compounds were obtained (Table 6).

Assay [9] deals with KRAS WT human gastric cancer cell MKN1. Description: 3D cell proliferation inhibition assay, MKN1. The conditions noted are these: MKN-1, 168 h, 3D culture, 7 days, CTG. An outline of the steps: as §1

In the case of `CCc1cccc2cc(O)cc(-c3ncc4c(N5CCC[C@@](C)(O)C5)nc(OCC5(CN6CCN(CC7CCC8(CC7)CCN(C(=O)c7ccc(OC)c(N9CCC(=O)NC9=O)c7)CC8)CC6)CC5)nc4c3F)c12` [Example 25, (R)-1-(5-(9-((4-((1-(((7-(8-ethyl-3-hydroxynaphthalen-1-yl)-8-fluoro-4-(3-hydroxy-3-methylpiperidin-1-yl)pyrido[4,3-d]pyrimidin-2-yl)oxy)methyl)cyclopropyl)methyl)piperazin-1-yl)methyl)-3-azaspiro[5.5]undecane-3-carbonyl)-2-methoxyphenyl)dihydropyrimidine-2,4(1H,3H)-dione], the half-inhibitory concentration (IC50) in assay [1] was not above 50 nM; in assay [2], 2.45 nM; in assay [3] it was not above 50 nM; in [4] it was not above 50 nM; in assay [5], not above 50 nM; in assay [7], 100 to 500 nM. The IC50 was 100 to 500 nM in assay [8] and not above 50 nM in assay [9]. This compound registered a DC50 in assay [6] not above 50 nM. Further, in assay [6], the Dmax is 80 to 100%.

On to `CCc1cccc2cc(O)cc(-c3ncc4c(N5CCC[C@@](C)(O)C5)nc(OCC5(CN6CCN(CC7CCC8(CC7)CCN(C(=O)c7ccc(C)c(N9CCC(=O)NC9=O)c7)CC8)CC6)CC5)nc4c3F)c12` [Example 26, (R)-1-(5-(9-((4-((1-(((7-(8-ethyl-3-hydroxynaphthalen-1-yl)-8-fluoro-4-(3-hydroxy-3-methylpiperidin-1-yl)pyrido[4,3-d]pyrimidin-2-yl)oxy)methyl)cyclopropyl)methyl)piperazin-1-yl)methyl)-3-azaspiro[5.5]undecane-3-carbonyl)-2-methylphenyl)dihydropyrimidine-2,4(1H,3H)-dione], for which the IC50 is not above 50 nM in assay [1]; 2.11 nM in assay [2]; not above 50 nM in assay [3]; not above 50 nM in assay [4]; not above 50 nM in assay [5]; 100 to 500 nM in [7]. Moreover, the IC50 in assay [8] is 100 to 500 nM; in assay [9] it was not above 50 nM. Further, the DC50 in [6] was not above 50 nM. This compound yielded a Dmax in assay [6] of 80 to 100%.

`C#Cc1c(F)ccc2cc(O)cc(-c3ccc4c(N5CCC[C@@](C)(O)C5)nc(OCC5(CN6CCN(CC7CCC8(CC7)CCN(C(=O)c7ccc(Cl)c(N9CCC(=O)NC9=O)c7)CC8)CC6)CC5)nc4c3F)c12` [Example 33, (R)-1-(2-chloro-5-(9-((4-((1-(((7-(8-ethynyl-7-fluoro-3-hydroxynaphthalen-1-yl)-8-fluoro-4-(3-hydroxy-3-methylpiperidin-1-yl)quinazolin-2-yl)oxy)methyl)cyclopropyl)methyl)piperazin-1-yl)methyl)-3-azaspiro[5.5]undecane-3-carbonyl)phenyl)dihydropyrimidine-2,4(1H,3H)-dione]: the IC50 in assay [1] was 50 to 100 nM; in assay [2] it was 7.71 nM; in [3], not above 50 nM; in assay [4], not above 50 nM; in assay [5], not above 50 nM; in [7] it was 50 to 100 nM. Also, the IC50 in assay [8] is not above 50 nM; in [9], 50 to 100 nM. This compound had a DC50 in [6] not above 50 nM. Moreover, in assay [6], the Dmax is 80 to 100%.

On to `C#Cc1c(F)ccc2cc(O)cc(-c3ncc4c(N5CCCOCC5)nc(OCC5(CN6CCN(CC7CCC8(CC7)CCN(C(=O)c7ccc(C)c(N9CCC(=O)NC9=O)c7)CC8)CC6)CC5)nc4c3F)c12` [Example 36, 1-(5-(9-((4-((1-(((7-(8-ethynyl-7-fluoro-3-hydroxynaphthalen-1-yl)-8-fluoro-4-(1,4-oxazepan-4-yl)pyrido[4,3-d]pyrimidin-2-yl)oxy)methyl)cyclopropyl)methyl)piperazin-1-yl)methyl)-3-azaspiro[5.5]undecane-3-carbonyl)-2-methylphenyl)dihydropyrimidine-2,4(1H,3H)-dione], for which the half-maximal inhibitory concentration (IC50) in [1] is not above 50 nM; in assay [2], 3.36 nM; in assay [3], not above 50 nM; in [4], not above 50 nM; in assay [5], not above 50 nM; in [7], 50 to 100 nM. For the same compound, the values for the IC50 in assay [8] and in [9] were 50 to 100 nM and not above 50 nM, respectively. The DC50 in [6] is not above 50 nM. Also, the Dmax in [6] was 80 to 100%.
